Measurements taken from US20230407243A1, “GENETIC PLATFORM TO INVESTIGATE THE FUNCTIONS OF BACTERIAL DRUG EFFLUX PUMPS” (priority 2022, published 2023).
Where two headings read alike, the source gives them in different places.

Assays:
Format in all cases: cell-based, Escherichia coli
ΔtolC-Pore = experiment: microbe, parasite or virus in culture; conditions: for MIC: Escherichia coli, 18 h, read-out: Minimum inhibitory concentration, ΔtolC-Pore; for Minimum inhibitory concentration (MIC), Pore ΔtolC: Table 10, with pore; for Minimum inhibitory concentration (MIC), Pore ΔtolC / Minimum inhibitory concentration, ΔtolC-Pore: technical duplicate; for Minimum inhibitory concentration, ΔtolC-Pore: Table 14A, porinated
In short: (§1)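 E. coli strains carrying a genomically integrated constitutive fhuA ΔC/Δ4L pore were grown 18 h in LB at 37 °C, then diluted 1/2000 in MHB II from OD600 ~1.0. Compounds were tested in duplicate, 2-fold serial titration, for 18 h at 37 °C with shaking. MIC came from OD600 with the pre-incubation background subtracted.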

wild-type (WT) K-12-Pore = experiment: microbe, parasite or virus in culture; conditions: for MIC: Escherichia coli
In short: as §1

EKO-35 araC::mdtEF = experiment: MIC susceptibility profiling, efflux platform; conditions: for Fold change of MICs: EKO-35 araC::mdtEF compared to EKO-35; for MIC: Escherichia coli, read-out: Minimum Inhibitory Concentration, EKO-35 araC::mdtEF; for MIC / Minimum Inhibitory Concentration, EKO-35 araC::mdtEF: Table 13A, non-porinated, technical duplicate
In short: (§2)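 MHB II broth microdilution; inoculum from 18 h LB culture, PBS-adjusted to OD600 ~1.0, then 1/2000 dilution. Compounds 2-fold titrated, duplicates, DMSO solvent control. 18 h, 37 °C, 900 rpm; background-corrected OD600 end point.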

EKO-35 araC::acrB = experiment: MIC susceptibility profiling, efflux platform; conditions: for Fold change of MICs: EKO-35 araC::acrB compared to EKO-35; for MIC: Escherichia coli, read-out: Minimum Inhibitory Concentration, EKO-35 araC::acrB; for MIC / Minimum Inhibitory Concentration, EKO-35 araC::acrB: Table 13A, non-porinated, technical duplicate
In short: as §2

EKO-35-Pore = experiment: MIC susceptibility profiling, porinated strain; conditions: for Fold changes of MICs: EKO-35-Pore compared to EKO-35-Pore (reference); for MIC: Escherichia coli; for MIC / Minimum inhibitory concentration (MIC), Pore EKO-35 / Minimum inhibitory concentration, EKO-35-Pore: technical duplicate
In short: as §1

[1] = system: wild-type E. coli K-12 str. BW25113; experiment: microbe, parasite or virus in culture; conditions: for MIC: Escherichia coli
In short: as §2

E. coli ΔtolC = experiment: microbe, parasite or virus in culture; conditions: for MIC: Escherichia coli, 18 h, read-out: Minimum Inhibitory Concentration, ΔtolC; for Minimum inhibitory concentration (MIC), ΔtolC: Table 10, without pore; for Minimum inhibitory concentration (MIC), ΔtolC / Minimum Inhibitory Concentration, ΔtolC: technical duplicate; for Minimum Inhibitory Concentration, ΔtolC: Table 13A, non-porinated
In short: as §2

E. coli EKO-35 = experiment: microbe, parasite or virus in culture; conditions: for Fold change of MICs: EKO-35 compared to EKO-35 (reference); for MIC: Escherichia coli
In short: as §2

[2] = Table 10, with pore, technical duplicate, read-out: Minimum inhibitory concentration (MIC), Pore K-12
[3] = Table 10, with pore, read-out: Minimum inhibitory concentration (MIC), Pore EKO-35
[4] = Table 14A, porinated, read-out: Minimum inhibitory concentration, EKO-35-Pore
[5] = BW25113, Table 10, without pore, technical duplicate, read-out: Minimum inhibitory concentration (MIC), K-12
[6] = BW25113, Table 13A, non-porinated, technical duplicate, read-out: Minimum Inhibitory Concentration, K-12
[7] = EKO35, Table 10, without pore, technical duplicate, read-out: Minimum inhibitory concentration (MIC), EKO-35
[8] = EKO35, Table 13A, non-porinated, technical duplicate, read-out: Minimum Inhibitory Concentration, EKO-35
[9] = Table 10, with pore, technical duplicate
[10] = Table 14A, porinated, technical duplicate
[11] = Table 10, without pore, technical duplicate
[12] = Table 13A, non-porinated, technical duplicate
[13] = Table 14A, porinated, technical duplicate, read-out: Minimum inhibitory concentration, K-12 (WT)-Pore

SMILES	MIC (ΔtolC-Pore) [µg/mL]	Minimum inhibitory concentration (MIC), Pore ΔtolC (ΔtolC-Pore) [µg/mL]	MIC (wild-type (WT) K-12-Pore; [2]) [µg/mL]	Fold change of MICs (EKO-35 araC::mdtEF) [fold]	MIC (EKO-35 araC::mdtEF) [µg/mL]	Fold change of MICs (EKO-35 araC::acrB) [fold]	MIC (EKO-35 araC::acrB) [µg/mL]	Fold changes of MICs (EKO-35-Pore) [fold]	MIC (EKO-35-Pore; [3]) [µg/mL]	MIC (EKO-35-Pore; [4]) [µg/mL]	MIC [1, 5] [µg/mL]	MIC [1, 6] [µg/mL]	MIC (E. coli ΔtolC) [µg/mL]	Minimum inhibitory concentration (MIC), ΔtolC (E. coli ΔtolC) [µg/mL]	Fold change of MICs (E. coli EKO-35) [fold]	MIC (E. coli EKO-35; [7]) [µg/mL]	MIC (E. coli EKO-35; [8]) [µg/mL]	MIC (wild-type (WT) K-12-Pore; [13]) [µg/mL]	other results
CC1(C)S[C@@H]2[C@H](NC(=O)[C@H](N)c3ccccc3)C(=O)N2[C@H]1C(=O)O [ampicillin]	1.56	1.563	12.5	1	25	4	100	1	1.56	1.56	100	100	25	25	1	25	25		
C=C1CCO[C@]2([C@@H](O)[C@@](C)(O)CO)NC(=O)[C@@]1(O)NC2=O [Bicyclomycin]		200		1		1		1						200	1				Minimum inhibitory concentration, ΔtolC-Pore (ΔtolC-Pore): 200 µg/mL; Minimum inhibitory concentration (MIC), Pore K-12 (wild-type (WT) K-12-Pore; [9]): 200 µg/mL; Minimum inhibitory concentration, K-12 (WT)-Pore (wild-type (WT) K-12-Pore; [10]): 200 µg/mL; Minimum Inhibitory Concentration, EKO-35 araC::mdtEF (EKO-35 araC::mdtEF): 200 µg/mL; Minimum Inhibitory Concentration, EKO-35 araC::acrB (EKO-35 araC::acrB): 200 µg/mL; Minimum inhibitory concentration (MIC), Pore EKO-35 (EKO-35-Pore; Table 10, with pore): 200 µg/mL; Minimum inhibitory concentration, EKO-35-Pore (EKO-35-Pore; Table 14A, porinated): 200 µg/mL; Minimum inhibitory concentration (MIC), K-12 [1, 11]: 200 µg/mL; Minimum Inhibitory Concentration, K-12 [1, 12]: 200 µg/mL; Minimum Inhibitory Concentration, ΔtolC (E. coli ΔtolC): 200 µg/mL; Minimum inhibitory concentration (MIC), EKO-35 (E. coli EKO-35; [11]): 200 µg/mL; Minimum Inhibitory Concentration, EKO-35 (E. coli EKO-35; [12]): 200 µg/mL
[H]/N=C(\N/C(=N/[H])NCCCCCCNC(=N)NC(=N)Nc1ccc(Cl)cc1)Nc1ccc(Cl)cc1 [Chlorhexidine]	0.391	0.391	0.781	1	0.391	1	0.391	1	0.391	0.391	0.781	0.781	0.391	0.391	1	0.391	0.391	0.781	
O=C(Nc1ccccc1)Nc1ccc(Br)c(C(F)(F)F)c1 [compound 6]		0.625		1		1		1						0.625	1				Minimum inhibitory concentration, ΔtolC-Pore (ΔtolC-Pore): 0.625 µg/mL; Minimum inhibitory concentration (MIC), Pore K-12 (wild-type (WT) K-12-Pore; [9]): 320 µg/mL; Minimum inhibitory concentration, K-12 (WT)-Pore (wild-type (WT) K-12-Pore; [10]): 320 µg/mL; Minimum Inhibitory Concentration, EKO-35 araC::mdtEF (EKO-35 araC::mdtEF): 320 µg/mL; Minimum Inhibitory Concentration, EKO-35 araC::acrB (EKO-35 araC::acrB): 320 µg/mL; Minimum inhibitory concentration (MIC), Pore EKO-35 (EKO-35-Pore; Table 10, with pore): 320 µg/mL; Minimum inhibitory concentration, EKO-35-Pore (EKO-35-Pore; Table 14A, porinated): 320 µg/mL; Minimum inhibitory concentration (MIC), K-12 [1, 11]: 320 µg/mL; Minimum Inhibitory Concentration, K-12 [1, 12]: 320 µg/mL; Minimum Inhibitory Concentration, ΔtolC (E. coli ΔtolC): 0.625 µg/mL; Minimum inhibitory concentration (MIC), EKO-35 (E. coli EKO-35; [11]): 320 µg/mL; Minimum Inhibitory Concentration, EKO-35 (E. coli EKO-35; [12]): 320 µg/mL
NCCCNCCCCNCCCN [Spermine]	2000	2000		1		1		1					2000	2000	1				MIC (wild-type (WT) K-12-Pore; read-out: Minimum inhibitory concentration (MIC), Pore K-12): 2000 µg/mL; MIC (wild-type (WT) K-12-Pore; read-out: Minimum inhibitory concentration, K-12 (WT)-Pore): 2000 µg/mL; MIC ([1]; BW25113, read-out: Minimum Inhibitory Concentration, K-12): 2000 µg/mL; MIC ([1]; BW25113, read-out: Minimum inhibitory concentration (MIC), K-12): 2000 µg/mL; MIC (E. coli EKO-35; EKO35, read-out: Minimum Inhibitory Concentration, EKO-35): 2000 µg/mL; MIC (E. coli EKO-35; EKO35, read-out: Minimum inhibitory concentration (MIC), EKO-35): 2000 µg/mL
NC[C@H]1O[C@H](O[C@H]2[C@H](O)[C@@H](O[C@H]3O[C@H](CO)[C@@H](O)[C@H](N)[C@H]3O)[C@H](N)C[C@@H]2N)[C@H](O)[C@@H](O)[C@@H]1O [kanamycin]	1.56	1.563	3.12	1		1		1	1.56	1.56	3.12	3.12	1.56	1.563	1	3.12	3.12	3.12	
CN[C@H](CC(C)C)C(=O)N[C@H]1C(=O)N[C@@H](CC(N)=O)C(=O)N[C@H]2C(=O)N[C@H]3C(=O)N[C@H](C(=O)N[C@H](C(=O)O)c4cc(O)cc(O)c4-c4cc3ccc4O)[C@H](O)c3ccc(c(Cl)c3)Oc3cc2cc(c3O[C@@H]2O[C@H](CO)[C@@H](O)[C@H](O)[C@H]2O[C@H]2C[C@](C)(N)[C@H](O)[C@H](C)O2)Oc2ccc(cc2Cl)[C@H]1O [vancomycin]	6.25	6.25	3.12	1	200	1	200	1	6.25	6.25	200	200	200	200	1	200	200	3.12	
